Reference: patent US20100197714A1, “SPIRO-PYRANO-PYRAZOLE DERIVATIVES” (priority 2007, published 2010)

Columns and labels:
σ1-receptor [1] = target: T1, σ1-receptor (Cavia porcellus, UniProt Q60492); experiment: Sigma-1 (Version A) radioligand binding, [3H](+)-pentazocine, guinea pig brain membranes
Experimental: Brain membrane preparation and binding assays for the σ1-receptor were performed as described (DeHaven-Hudkins et al., 1992) with some modifications. In brief, guinea pig brains were homogenized in 10 vols. […] The homogenate was centrifuged at 1000 g for 10 min at 4° C. and the supernatants collected and centrifuged again at 48000 g for 15 min at 4° C.
Each assay tube contained 10 μL of [^3H](+)-pentazocine (final concentration of 0.5 nM), 900 μL of the tissue suspension to a final assay volume of 1 mL and a final tissue concentration of approximately 30 mg tissue net weight/mL. […] All tubes were incubated at 37° C. for 150 min before termination of the reaction by rapid filtration over Schleicher & Schuell GF 3362 glass fibre filters [previously soaked in a solution of 0.5% polyethylenimine for at least 1 h]. […] Following addition of scintillation cocktail, the samples were allowed to equilibrate overnight. The amount of bound radioactivity was determined by liquid scintillation spectrometry using a Wallac Winspectral 1414 liquid scintillation counter.

σ1-receptor [2] = target: T1, σ1-receptor; experiment: Sigma 1 (Version B) radioligand binding, [3H]-(+)-pentazocine, guinea pig brain preparation; design: the σ1-receptor preparation was prepared from guinea pig brain; from tissue; host or cells: guinea pig brain membrane homogenate
Experimental: In brief the σ1-receptor preparation was prepared from guinea pig brain. The brains were homogenized in 5 to 6 times of volume sucrose solution (0.32M) and homogenized. The homogenate was centrifuged at 2900 rpm, 4° C., 10 min). the supernatant was centrifuged again (23500×g, 4° C., 20 min). The pellet was resuspended in Tris-buffer, incubated for 30 min at room temperature and centrifuged f (23500×g, 4° C., 20 min). The pellet was resuspended in cold TRIS-buffer and homogenized. Then the protein content was measured (approx. 1.5 mg/mL) and the homogenate frozen at −80° C. for later use.
The radioligand used was […]-(+)-Pentazocin in TRIS-buffer. In a volume of 200 μL 50 μL TRIS-buffer, 50 μL compound solution of varying concentration, 50 μL radioligand-solution (8 nM; resulting in 2 nM in the assay) and finally 50 μL of receptor preparation (approx. 1.5 mg/mL) were given into a well of a microplate equipped with a filter. The plate was closed and stirred for 2.5 h at 37° C. and 500 rpm. Following that the solvents were removed by a harvester through the filter. After rinsing with H2O the filter was measured in a scintillation counter ([^3H]-protocol).

σ2-receptor = target: T2, σ2-receptor (Rattus norvegicus, UniProt Q5U3Y7); experiment: Sigma 2 (Version B) radioligand binding, [3H]-ditolylguanidine, rat liver preparation, σ1 sites masked with (+)-pentazocine; settings: for Ki: [3H]-ditolylguanidine 3 nM
T2 construct: the σ2-Receptorpreparation was prepared from rat liver; from tissue; host or cells: rat liver membrane homogenate
T2 sequence (Q5U3Y7 1-176): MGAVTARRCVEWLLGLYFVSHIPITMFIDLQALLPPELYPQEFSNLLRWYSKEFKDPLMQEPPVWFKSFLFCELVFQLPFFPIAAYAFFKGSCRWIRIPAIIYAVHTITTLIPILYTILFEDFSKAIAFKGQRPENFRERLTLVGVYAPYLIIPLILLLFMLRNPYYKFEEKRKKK
Experimental: In brief the σ2-Receptorpreparation was prepared from rat liver. The livers were homogenized in 5 to 6 times of volume sucrose solution (0.32M) and homogenized. The homogenate was centrifuged at 2900 rpm, 4° C., 10 min). the supernatant was centrifuged again (31000×g, 4° C., 20 min). The pellet was resuspended in TRIS-buffer, incubated for 30 min at room temperature while stirring and centrifuged f (31000×g, 4° C., 20 min). The pellet was resuspended in cold TRIS-buffer pH 8 and homogenized. Then the protein content was measured (approx. 2 mg/mL) and the homogenate frozen at −80° C. for later use.
The radioligand used was [^3H]-Ditolylguanidin in TRIS-buffer pH 8. The σ1-receptor binding sites were masked through (+)-Pentazocin-solution in TRIS-Puffer pH 8.
In a volume of 200 μL 50 μL compound solution of varying concentration, 50 μL (+)-Pentazocin-solution (2 μM; resulting in 500 nM in the assay), 50 μL radioligand-solution (12 nM; resulting in 3 nM in the assay) and finally 50 μL of receptor preparation (approx. 2 mg/mL) were given into a well of a microplate equipped with a filter. The plate was closed and stirred for 2 h at room temperature and 500 rpm. Following that the solvents were removed by a harvester through the filter. After rinsing with H2O the filter was measured in a scintillation counter ([^3H]-protocol).

T1 sequence (Q60492 whole entry): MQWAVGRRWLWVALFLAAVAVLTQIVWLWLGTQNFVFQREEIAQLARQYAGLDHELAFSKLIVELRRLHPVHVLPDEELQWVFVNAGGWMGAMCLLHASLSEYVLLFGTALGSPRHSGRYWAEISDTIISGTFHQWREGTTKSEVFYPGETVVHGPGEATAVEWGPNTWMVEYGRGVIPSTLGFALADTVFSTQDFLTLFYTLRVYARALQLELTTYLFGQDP

Structure (SMILES): COC1Cc2c(cnn2-c2ccccc2)C2(CCN(CCC(C)C)CC2)O1 (stereo not drawn) [Example 12, 1-Isopentyl-6′-methoxy-1′-phenyl-6′,7′-dihydro-1′H-spiro[piperidin-4,4′-pyrano[4,3-c]pyrazole]]
- Ki (σ1-receptor [1]): 2.5 nM
- Ki (σ1-receptor [2]): 0.97 nM
- Ki (σ2-receptor): 316 nM

Structure (SMILES): COC1Cc2c(cnn2-c2ccccc2)C2(CCN(CC=C(C)C)CC2)O1 (stereo not drawn) [Example 13, 6′-Methoxy-1-(3-methylbut-2-en-1-yl)-1′-phenyl-6′,7′-dihydro-1′H-spiro[piperidin-4,4′ pyrano[4,3-c]pyrazole]]
- Ki (σ1-receptor [1]): 7.3 nM
- Ki (σ1-receptor [2]): 1.64 nM
- inhibition at 1 µM (σ2-receptor; compound at 1 μM): 3%

Structure (SMILES): COC1Cc2c(cnn2-c2ccccc2)C2(CCN(CCCCc3ccccc3)CC2)O1 (stereo not drawn) [Example 18, 6′-Methoxy-1′-phenyl-1-(4-phenylbutyl)-6′,7′-dihydro-1′H-spiro[piperidin-4,4′-pyrano[4,3-c]pyrazole]]
- Ki (σ1-receptor [1]): 15.7 nM
- Ki (σ1-receptor [2]): 3.22 nM
- Ki (σ2-receptor): 428 nM

Structure (SMILES): CCCCCCCCN1CCC2(CC1)OC(OC)Cc1c2cnn1-c1ccccc1 (stereo not drawn) [Example 14, 6′-Methoxy-1-octyl-1′-phenyl-6′,7′-dihydro-1′H-spiro[piperidin-4,4′-pyrano[4,3-c]pyrazole]]
- Ki (σ1-receptor [1]): 41 nM
- Ki (σ1-receptor [2]): 2.86 nM
- Ki (σ2-receptor): 209 nM

Structure (SMILES): COC1Cc2c(cnn2-c2ccccc2)C2(CCN(Cc3ccco3)CC2)O1 (stereo not drawn) [Example 19, 1-(Furan-2-ylmethyl)-6′-methoxy-1′-phenyl-6′,7′-dihydro-1′H-spiro[piperidin-4,4′-pyrano[4,3-c]pyrazole]]
- Ki (σ1-receptor [1]): 3.8 nM
- Ki (σ1-receptor [2]): 2.21 nM
- Ki (σ2-receptor): 5220 nM

Structure (SMILES): COC1Cc2c(cnn2-c2ccccc2)C2(CCN(CC3CCCCC3)CC2)O1 (stereo not drawn) [Example 15, 1-(Cyclohexan-1-ylmethyl)-6′-methoxy-1′-phenyl-6′,7′-dihydro-1′H-spiro[piperidin-4,4′-pyrano[4,3-c]pyrazole]]
- Ki (σ1-receptor [1]): 7.9 nM
- Ki (σ1-receptor [2]): 0.55 nM
- Ki (σ2-receptor): 109 nM

Structure (SMILES): COC1Cc2c(cnn2-c2ccccc2)C2(CCN(Cc3ccc(F)cc3)CC2)O1 (stereo not drawn) [Example 21, 1-(4-Fluorbenzyl)-6′-methoxy-1′-phenyl-6′,7′-dihydro-1′H-spiro[piperidin-4,4′-pyrano[4,3-c]pyrazole]]
- Ki (σ1-receptor [1]): 7.7 nM
- Ki (σ1-receptor [2]): 0.94 nM
- Ki (σ2-receptor): 687 nM
